Conditions: not given

| SMILES | boiling point | ready biodegradability | log10 vapour pressure (mmHg) | melting point | log10 Henry constant (atm·m³/mol) | log10 Koa | log10 Koc (L/kg) | log10 biodegradation half-life (days) |
| --- | --- | --- | --- | --- | --- | --- | --- | --- |
| CCOC(=O)CC(C)C(=O)OCC (centres undefined) | 218 °C |  |  |  |  |  |  |  |
| CCCCCCCCCCCCCCCCCCOP(OCCCCCCCCCCCCCCCCCC)OCCCCCCCCCCCCCCCCCC |  | readily biodegradable |  |  |  |  |  |  |
| C=C(Cl)C(Cl)CCl (centres undefined) | 155 °C |  | 0.274 |  |  |  |  |  |
| CCCCC(CC)COC(=O)c1ccc(C(=O)OCC(CC)CCCC)c(C(=O)OCC(CC)CCCC)c1 (centres undefined) | 414 °C | not readily biodegradable |  |  |  |  |  |  |
| O=C(O)c1c(F)c(F)c(F)c(F)c1F | 220 °C |  |  | 101 °C |  |  |  |  |
| CCOC(=O)c1c(Cl)c(Cl)c(Cl)c(Cl)c1C(=O)O |  |  |  | 94.5 °C |  |  |  |  |
| CC1(C)CC(=O)NC(=O)C1 |  |  |  | 145 °C |  |  |  |  |
| CCCCCCCBr | 179 °C |  | 0.105 | -58 °C |  |  |  |  |
| O=[N+]([O-])c1cccc(Cl)c1 | 236 °C | not readily biodegradable | -1.01 | 46 °C | -4.87 |  |  |  |
| NNC(=O)c1ccc(Cl)cc1 |  |  |  | 164 °C |  |  |  |  |
| CNc1nc(NC(C)C)nc(SC)n1 | 345 °C |  | -6 | 85 °C |  |  |  |  |
| O=C(O)CCc1nc(-c2ccccc2)c(-c2ccccc2)o1 |  |  |  | 161 °C |  |  |  |  |
| CCCCN | 78 °C | readily biodegradable | 1.97 | -50 °C | -4.76 | 3.61 | 1.88 |  |
| CC(=O)c1ccc(C(C)C)cc1 | 254 °C |  |  |  |  |  |  |  |
| COc1cc2c(c(O)c1OC)C(C)N(C)CC2 (centres undefined) |  |  |  | 112 °C |  |  |  |  |
| O=[N+]([O-])c1ccc(Br)c(Cl)c1 |  |  |  |  |  |  | 2.6 |  |
| CC(C)CC(=O)C=Cc1ccccc1 |  |  |  | 43 °C |  |  |  |  |
| O=C1OC2(c3ccccc31)c1ccc(O)c(Br)c1Oc1c2ccc(O)c1Br |  |  |  | 285 °C |  |  |  |  |
| CCOC(=O)c1ccccn1 | 243 °C |  |  | 1 °C |  |  |  |  |
| OCC1CO1 (centres undefined) |  | readily biodegradable |  |  |  |  |  |  |
| CCS(=O)(=O)Cl | 174 °C |  |  |  |  |  |  |  |
| CN1Cc2c(N)cccc2C(c2ccccc2)C1 (centres undefined) |  |  |  | 180 °C |  |  |  |  |
| CCCCC1CCCCC1 | 181 °C |  | 0.119 | -74.7 °C |  |  |  |  |
| C=COC=C | 28.3 °C |  | 2.83 | -101 °C |  |  |  |  |
| CCCCC(C)C(C)O (centres undefined) | 166 °C |  |  |  |  |  |  |  |

| SMILES | boiling point | ready biodegradability | log10 vapour pressure (mmHg) | melting point | log10 Henry constant (atm·m³/mol) | log10 Koa | log10 Koc (L/kg) | log10 biodegradation half-life (days) |
| --- | --- | --- | --- | --- | --- | --- | --- | --- |
| O=C(/C=C/c1ccccc1)c1ccccc1 | 346 °C |  |  | 57.5 °C |  |  |  |  |
| O=C1c2c(O)cccc2C(=O)C2C(O)=CC=CC12 (centres undefined) |  |  |  | 280 °C |  |  |  |  |
| CCCCCCCC/C=C/CCCCCCCC(=O)O |  |  |  | 29.2 °C |  |  |  |  |
| On1nnc2ccccc21 |  |  |  | 158 °C |  |  |  |  |
| CCOC(=O)CC1CCCCC1 | 211 °C |  |  |  |  |  |  |  |
| Cc1ccc2c(c1N)C(=O)c1ccccc1C2=O |  |  |  | 206 °C |  |  | 3.9 |  |
| c1ccc2sncc2c1 | 220 °C |  |  | 38 °C |  |  |  |  |
| CC1OC(=O)C=C2C3=C(OC(C)(C)CC3)C(=O)C(O)=C21 (centres undefined) |  |  |  | 230 °C |  |  |  |  |
| CCCCCCCCCCCCCCC=O |  |  |  | 24.5 °C |  |  |  |  |
| COc1ccc(N)c([N+](=O)[O-])c1 |  | not readily biodegradable |  | 124 °C |  |  |  |  |
| ClC1=C(Cl)[C@]2(Cl)[C@H]3[C@H]([C@@H]4O[C@]4(Cl)[C@@H]3Cl)[C@@]1(Cl)C2(Cl)Cl (mixture of isomers) | 353 °C |  |  | 144 °C |  | 8.39 |  |  |
| CC(Br)C(C)(Br)Br (centres undefined) | 206 °C |  |  | 1.8 °C |  |  |  |  |
| CC(C)=CCC/C(C)=C/CO | 228 °C | readily biodegradable | -1.52 |  |  |  |  |  |
| CCCC(=O)Cl | 102 °C |  |  | -89 °C |  |  |  |  |
| Cc1cc(OC(=O)N(C)C)n(-c2ccccc2)n1 |  |  |  | 50 °C |  |  |  |  |
| CCCCc1cc2ccccc2c(OCCN(C)C)n1 |  |  |  | 146 °C |  |  |  |  |
| O=S(=O)(O)C(F)(F)C(F)(F)C(F)(F)C(F)(F)C(F)(F)C(F)(F)F | 238 °C |  |  |  |  |  |  |  |
| Cc1ccc(NC(=O)N(C)C)cc1 |  |  |  |  |  |  | 1.51 |  |
| C1CNCCN1 | 146 °C | not readily biodegradable | -0.796 |  |  |  |  |  |
| C=C(Cl)C(=O)O |  |  |  | 66 °C |  |  |  |  |
| CCC(C)Nc1ccc(NC(C)CC)cc1 (centres undefined) |  |  |  | 18 °C |  |  |  |  |
| C[N+](C)(C)CC(=O)O.[Cl-] |  |  |  | 242 °C |  |  |  |  |
| C=CC(C)(O)CC(C)C (centres undefined) | 146 °C |  |  |  |  |  |  |  |
| Cc1cc2c(cc1Nc1ccccc1)C1(OC(=O)c3ccccc31)c1ccc(N(C)C3CCCCC3)cc1O2 (centres undefined) |  | not readily biodegradable |  |  |  |  |  |  |
| FC(F)(Cl)C(Cl)(Cl)Cl | 91.5 °C |  | 1.78 | 40.6 °C |  |  |  |  |

| SMILES | boiling point | ready biodegradability | log10 vapour pressure (mmHg) | melting point | log10 Henry constant (atm·m³/mol) | log10 Koa | log10 Koc (L/kg) | log10 biodegradation half-life (days) |
| --- | --- | --- | --- | --- | --- | --- | --- | --- |
| O=C(O)CSCC(=O)O |  |  |  | 129 °C |  |  |  |  |
| Nc1ccc(C(=O)N[C@@H](CCC(=O)O)C(=O)O)cc1 |  |  |  | 173 °C |  |  |  |  |
| Brc1sc(Br)c(Br)c1Br | 326 °C |  |  | 118 °C |  |  |  |  |
| CCC(C)(C)CC(C)(C)C | 154 °C |  |  |  |  |  |  |  |
| CC(C(=O)O)c1ccc(C(=O)c2cccs2)cc1 (centres undefined) |  |  |  | 124 °C |  |  |  |  |
| Cl/C=C\Cl | 54.4 °C |  |  | -64.9 °C | -2.17 | 2.56 |  |  |
| COCCOc1cnc(NS(=O)(=O)c2ccccc2)nc1 |  |  |  | 153 °C |  |  |  |  |
| CN(C)c1ccc(N=C2C=CC(=O)C=C2)cc1 |  |  |  | 134 °C |  |  |  |  |
| Cc1cc2ccccc2cc1C | 268 °C | readily biodegradable | -2.96 | 105 °C | -3.04 |  |  | 1.18 |
| CC(C)COCCO | 160 °C |  |  |  |  |  |  |  |
| CC(=O)Nc1ccc(OCC(O)CNC(C)C)cc1 (centres undefined) |  |  |  | 135 °C |  |  |  |  |
| ClCCCOCCCCl | 216 °C |  |  |  |  |  |  |  |
| CCCCCCCCCCCCCCCCCCCBr |  |  | -5.65 |  |  |  |  |  |
| c1ccc2cc3c(ccc4ccccc43)cc2c1 | 438 °C | not readily biodegradable | -6.68 |  | -4.92 |  | 5.3 | 2.46 |
| Cc1cc(NS(=O)(=O)c2ccc(N)cc2)n(-c2ccccc2)n1 |  |  |  | 195 °C |  |  |  |  |
| CN1CCCN=C1/C=C/c1cccs1 |  |  |  | 178 °C |  |  |  |  |
| CCOc1cccc(OCC)c1 | 235 °C |  |  | 12.4 °C |  |  |  |  |
| c1cnc2c(c1)CCCC2 | 222 °C |  |  |  |  |  |  |  |
| CN(C)c1nc(N(C)C)nc(N(C)C)n1 |  |  |  | 173 °C |  |  |  |  |
| OCN(CO)c1nc(N(CO)CO)nc(N(CO)CO)n1 |  |  |  | 137 °C |  |  |  |  |
| Nc1cccc(S(=O)(=O)c2cccc(N)c2)c1 |  | not readily biodegradable |  | 172 °C |  |  |  |  |
| CCCCc1cccs1 | 182 °C |  |  |  |  |  |  |  |
| O=C1CN=C(c2ccccc2)c2cc([N+](=O)[O-])ccc2N1 |  |  |  | 225 °C |  |  |  |  |
| CCCCCCCCCCCCCCCCCBr | 349 °C |  | -4.74 | 32 °C |  |  |  |  |
| C=CC(=O)NC(C)(C)C |  |  |  | 128 °C |  |  |  |  |

| SMILES | boiling point | ready biodegradability | log10 vapour pressure (mmHg) | melting point | log10 Henry constant (atm·m³/mol) | log10 Koa | log10 Koc (L/kg) | log10 biodegradation half-life (days) |
| --- | --- | --- | --- | --- | --- | --- | --- | --- |
| CC1(c2ccccc2)CCOCO1 (centres undefined) | 256 °C |  |  | 37.5 °C |  |  |  |  |
| CCN(CC)C(N)=O |  |  |  | 75 °C |  |  |  |  |
| COC(=O)COc1ccccc1 | 245 °C |  |  | 245 °C |  |  |  |  |
| O=C1c2c(Br)c(Br)c(Br)c(Br)c2C(=O)N1CCN1C(=O)c2c(Br)c(Br)c(Br)c(Br)c2C1=O |  |  |  | 445 °C |  |  |  |  |
| FC(F)(F)c1ccccc1Cl | 152 °C |  | 0.706 | -6 °C |  |  |  |  |
| Clc1cc2c(Cl)ccc(Cl)c2c(Cl)c1Cl |  |  | -6 |  |  | 9.1 |  |  |
| FCC(F)(F)C(F)F | 26 °C |  | 2.88 | -82 °C |  |  |  |  |
| CC(=O)NS(=O)(=O)c1ccc(NC(=O)c2ccccc2C(=O)O)cc1 |  |  |  | 196 °C |  |  |  |  |
| FC(C(F)(F)F)C(F)(F)F | -17.3 °C |  | 3.53 | -127 °C |  |  |  |  |
| O=C(O)c1ccncc1 |  |  |  | 315 °C |  |  |  |  |
| O=C(Nc1ccc(O)cc1)c1ccccc1O |  |  |  | 179 °C |  |  |  |  |
| C/C=N/O | 115 °C |  |  | 45 °C |  |  |  |  |
| CCOCCc1ccc(OCCN=c2[nH]cnc(CC)c2Cl)c(C)c1C |  |  |  | 70 °C |  |  |  |  |
| CC(C)COC(OCC(C)C)OCC(C)C | 223 °C |  |  |  |  |  |  |  |
| NC(=O)C(=O)O |  |  | -6.33 |  |  |  |  |  |
| CCC#CCCO | 163 °C | readily biodegradable |  |  |  |  |  |  |
| O=c1oc2ccccc2cc1O |  |  |  | 154 °C |  |  |  |  |
| CC1CC(C)NC(C)C1 (centres undefined) | 145 °C |  |  |  |  |  |  |  |
| CC(=O)c1ccco1 | 175 °C |  |  | 33 °C |  |  |  |  |
| Nc1cc2ccccc2c2ccccc12 |  |  |  | 138 °C |  |  |  |  |
| Cc1ccc(C(=O)C(C)CN2CCCCC2)cc1 (centres undefined) |  |  |  | 176 °C |  |  |  |  |
| CCOc1ccc([N+](=O)[O-])cc1N |  |  |  | 96.5 °C |  |  |  |  |
| CC(C)COC(=O)c1ccc(C(=O)OCC(C)C)cc1 |  |  |  | 55 °C |  |  |  |  |
| O=[N+]([O-])c1ccc2[nH]nnc2c1 |  |  |  | 217 °C |  |  |  |  |
| CCCCCCC(=O)O | 222 °C | readily biodegradable | -1.97 | -7.5 °C |  |  |  |  |

Same assay, conditions: fish

| SMILES | log10 BCF | log10 biotransformation half-life (days) |
| --- | --- | --- |
| CCCCC(CC)COC(=O)c1ccc(C(=O)OCC(CC)CCCC)c(C(=O)OCC(CC)CCCC)c1 (centres undefined) | 1.17 |  |
| O=[N+]([O-])c1cccc(Cl)c1 | 1.89 |  |
| COc1ccc(N)c([N+](=O)[O-])c1 | 0.85 | -0.87 |
| C1CNCCN1 | 0.59 |  |
| Clc1cc(Cl)c(Cl)c(-c2cccc(Cl)c2Cl)c1 |  | 2.44 |
| Cc1cc2ccccc2cc1C |  | 0.03 |
| c1ccc2cc3c(ccc4ccccc43)cc2c1 | 2.41 | 0.02 |
| Clc1cc2oc3c(Cl)c(Cl)cc(Cl)c3c2c(Cl)c1Cl | 3.2 |  |

From the OPERA property sets (Mansouri et al. 2018)
